Converted amounts (≈) assume the structure as drawn.
Assay: Solubility of BHET in different solvents (shaken 2 hours, analyzed by HPLC)
Format: physicochemical
Procedure: Solubility of BHET in Different Solvents
10 ml of the designated solvent was added to a scintillation vial with 2 g of BHET. The vial was placed in a shaker, shaken for 2 hours and the contents were analyzed by HPLC.

Q: Which results are given for `O=C(OCCO)c1ccc(C(=O)OCCO)cc1` [BHET, bis(2-hydroxyethyl) terephthalate]?
A: solubility of BHET in 45% THF/Hexanes (estimated) (solvent: 45% THF/Hexanes, estimated from 12.6% solubility in THF): 5.67%; % Solubility (w/v) (solvent: Acetone): 9.09 % (w/v); % Solubility (w/v) (solvent: Acetonitrile): 4.98 % (w/v); % Solubility (w/v) (solvent: DMF): 60 % (w/v); % Solubility (w/v) (solvent: Dichloromethane): 1.12 % (w/v); % Solubility (w/v) (solvent: Ethanol): 8.61 % (w/v); % Solubility (w/v) (solvent: Methanol): 13.75 % (w/v); % Solubility (w/v) (solvent: THF): 12.6 % (w/v); % Solubility (w/v) (solvent: ethylene glycol): 2.81 % (w/v); % Solubility (w/v) (solvent: hexanes): _~0 % (w/v); % Solubility (w/v) (solvent: iso-propanol): 6.16 % (w/v); solubility thermodynamic at 2 h (thermodynamic from solid, solvent: water): 5000 µg/mL (≈ 19.7 mM)
